This is an account of results in patent US20240299269A1, “HYDROXY ACIDS FOR SCALP AND HAIR IN PERSONAL CARE COMPOSITIONS” (The Procter & Gamble Company, priority 2023, published 2024).

The conditions of data set [1]: calcium binding constant; cited from earlier work.
For data set [2] the following is noted: octanol/water; cited from earlier work.
A short description of data set [3]: In vitro calcium chelation screening of weak acids (octanol/water, ICP-OES). Type of data set: physicochemical. The settings on record: for % Calcium in Water Phase: 3% hydroxy acid in water, pH approximately 3, 1000 ppm CaCO3 in octanol, vortexed 2 minutes, 2 hours. How it is done: A high throughput in-vitro screening method is developed to help identify lead acids that could function as calcium chelators. The intent of the method is to mimic the lipid matrix of the scalp and to quantify the amount of calcium that could be extracted from that matrix. […] Equal parts of the lipid and water phases are added to a conical vial and vortexed for 2 minutes. The vials are left to sit for 2 hours and then the lower water phase is extracted from the concial vial and submitted for Calcium analysis via ICP-OES. […] [formula]

`O=C(O)CC(O)(CC(=O)O)C(=O)O` [Citric Acid]: in data set [1], the logK_1 is on record as 1.100 and the logK_3 is 4.680.
As to `O=C(O)[C@H](O)[C@@H](O)[C@H](O)[C@H](O)CO` [Gluconic Acid], the LogP (in general, a log measure of how a compound divides between an organic and an aqueous phase) in data set [2] was −1.870. For the same compound, the logK_1 in data set [1] was 1.880.
In the case of `O=C(O)CO` [Glycolic Acid], the LogP in data set [2] is −1.050. Moreover, the logK_1 in data set [1] is on record as 1.590.
On to `CC(O)C(=O)O` (stereo not drawn) [Lactic Acid], for which, in data set [3], the “% Calcium in Water Phase” value came to 78%. Further, the logK_1 in data set [1] is on record as 1.450.
Take `O=C(O)c1ccccc1O` [Salicylic Acid]: in data set [3], the “% Calcium in Water Phase” value is 29%. The calcium chelation ability result in data set [3] (among hydroxy acids screened) was “lower calcium chelation ability”. Further, in data set [1], the logK_1 is 1.100.
In the case of `O=C(O)C(O)C(O)C(=O)O` (stereo not drawn) [Tartaric Acid], the LogP in data set [2] is reported as −0.760.
